These results are taken from patent EP2533787B1, “USE OF ISORHAMNETIN TRIGLYCOSIDES” (Dr. Willmar Schwabe GmbH & Co. KG, priority 2010, dated 2011).

Each structure is given as a SMILES string. Marks after values point to notes of the source that are not given here.

The test system of one assay is Mäuse. Briefly: Light/dark box test ("Hell-Dunkel-Box"), frequency of compartment changes. In kind it is in vivo. The conditions noted are these: for Anzahl der Feldwechsel im Vergleich zur Vehikel-Kontrolle / Wechselhäufigkeit in der "Hell-Dunkel-Box": single dose; for Anzahl der Feldwechsel im Vergleich zur Vehikel-Kontrolle: tested after 60 min, observed 3 min; for Erkundungsverhalten ("exploratory behavior"): oral application in mice; for Erkundungsverhalten ("exploratory behavior") / Wechselhäufigkeit in der "Hell-Dunkel-Box": result in words; for Wechselhäufigkeit in der "Hell-Dunkel-Box": oral. The source says:
Die aktivitätssteigernde Wirkung der Isorhamnetintriglycoside 2, 3 und 4 wurde an Versuchstieren im sogenannten "Hell-Dunkel-Box" System getestet.
Das Prinzip des verwendeten Testsystems beruht darauf, dass Mäuse einem Verhaltensparadigma ausgesetzt werden, das zwei gegensätzliche Verhaltensmuster aktiviert. Die Box besteht aus zwei Kompartimenten von denen ein kleinerer dunkler Teil von einem hellen und größeren Teil durch eine Wand getrennt wird. In der Mitte der Wand befindet sich eine kleine Öffnung, die es dem Versuchstier ermöglicht zwischen den beiden Kompartimenten zu wechseln. Der Versuch beginnt mit dem Einsetzen der Maus in das helle Feld. Das angeborene Dunkelpräferenzverhalten führt dazu, dass die Tiere nach einer kurzen Latenzzeit in das dunkle -sichere Kompartiment wechseln. Nach kurzer Zeit führt aber das ebenso stark ausgeprägte Neugierverhalten (Erkundungsverhalten) dazu, dass die Mäuse wieder in das helle Kompartiment wechseln. Somit stehen zwei angeborene Verhaltensweisen, nämlich die Dunkelpräferenz (Vermutlich als Schutz vor Beutegreifern) und das Erkundungsverhalten (wichtig für Nahrungssuche, Partnersuche) im Konflikt, die für eine Dauer von 3 Minuten aufgezeichnet werden. Arzneimittel, die beruhigende pharmakologische Effekte haben, führen zu einer Verminderung der Wechselhäufigkeit zwischen den Kompartimenten, während Arzneimittel mit stimulierenden Aktivitäten die Wechselhäufigkeit steigern. Die Wechselhäufigkeit ist somit ein Index für aktivitätsgesteuertes Erkundungsverhalten als Zeichen einer Habituation (M. Bourin, and M. Hascoet, "The mouse light/dark box test", Eur. J. Pharmacol. 463 (2003) 55 - 65). Die Versuchsanordnung betrachtet somit Verhaltensparameter, die geeignet sind das Maß an Aktivität zu messen und zu bewerten.
Um die aktivitätssteigernden Effekte der Isorhamnetintriglycoside 2, 3 und 4 zu testen wurden Mäuse einmalig mit verschieden hohen Dosierungen der Flavone behandelt. Zum Vergleich wurden einige Tiere entweder mit dem sedierenden Benzodiazepin Lorazepam oder mit dem aktivitätssteigernden Präparat Methamphetamin oder mit einer wirkungslosen Kontrolllösung behandelt. Nach 60 Minuten wurden die Tiere in das helle Kompartiment der "Hell-Dunkel-Box" gesetzt und über einen Zeitraum von 3 Minuten beobachtet. Als Maß der Aktivität wurde die Häufigkeit der Feldwechsel gemessen. […] Tabelle 2: Wirkung der Isorhamnetintriglycoside 2 und 3 im Vergleich zum Anxiolytikum Lorazepam. Gemessen wird die Anzahl der Feldwechsel im Vergleich zur Vehikel-Kontrolle.

Assay [1] concerns Hippocampus Schnittpräparaten. Briefly: Long-term potentiation (LTP) in hippocampal slice preparations, POP spikes. In kind it is cell-based, Wistar-Ratten. The conditions noted are these: result in words; for Langzeitpotenzierung: rat brain slice preparations, compared with buffer solution; for Reizantwort nach LTP-Stimulation: size of POP spikes after repeated LTP induction, compared with solvent. The source says: Um den Einfluss der Isorhamnetintriglycoside 2 und 4 auf mentale Funktionen zu testen wurde die Induktion der sogenannten Langzeitpotenzierung (LTP) verwendet. In Hirnschnitt-Präparaten von Wirbeltieren dient LTP als zelluläres Modell für Lernvorgänge, vor allem im Arbeitsgedächtnis (T. V. P. Bliss, and G. L. Collingridge, "A synaptic model of memory: Long-term potentiation in the hippocampus", Nature 361 (1993) 31 - 39). Durch wiederholte Reizung von Neuronen wird eine langandauernde Verstärkung der synaptischen Übertragung induziert, die durch eine Stabilisierung oder Aktivierung sogenannter ruhender Synapsen ("silent synapses) zu einer Neubildung von Verschaltungsmustern zustande kommt (Lernen). Die am besten untersuchte Region des Gehirns für LTP Messungen ist der Hippocampus, der für die Verarbeitung von Lernvorgängen eine zentrale Rolle spielt, allerdings findet LTP auch in anderen Hirnregionen statt (G. A. Kerchner, and R.A. Nicoll, "Silent synapses and the emergence of a postsynaptic mechanism for LTP", Nat. Rev. Neurosci. 9 (2008) 813 - 825). Bei Ratten und anderen Nagern ist die Langzeitpotenzierung insbesondere mit der Ausbildung des räumlichen Lernens assoziiert (J. R. Whitlock, A. J. Heynen, M. G. Shuler, and M. F. Bear, "Learning induced long-term potentiation in the hippocampus", Science 313 (2006) 1093 - 1097).
Die Experimente wurden an Hippocampus Schnittpräparaten von 8-12 Wochen alten weiblichen Wistar-Ratten durchgeführt. Die Hirnschnitte werden bei 35°C in einer Messkammer gehalten und mit einer Nährlösung perfundiert. Glasmikroelektroden werden im dendritischen Bereich des Stratum pyramidale (CA1) platziert um "Population Spikes" (POP-Spikes) zu registrieren. Die Schaffer-Kollateralen werden mit bipolaren Reizelektroden aus Platin-Draht stimuliert und die resultierenden Aktionspotentiale (POP Spikes) gemessen. Der eigentliche Versuch beginnt nach einer Äquilibrierungszeit von 60 Minuten in welcher die Hirnschnitte nicht manipuliert werden. Anschließend werden die Elektroden platziert und begonnen die Schaffer Kollateralen mit steigender Stromstärke zu stimulieren. Nach Erreichen der maximalen Reizantwort wird die Stromstärke so reduziert, dass nur noch 50% der maximal möglichen Reizstärke erreicht werden. Dadurch kann im späteren Versuch überprüft werden ob eine Verstärkung der Reizantwort möglich ist. Anschließend wird alle 10 Sekunden mit der submaximalen Reizstärke stimuliert und die POP Spikes registriert. Die erste LTP-Induktion beginnt mit einer repetitiven Reizung (100 Hz für 1 Sekunde). Der 1. Stimulation folgt die erneute Einzelstimulation (alle 10 Sekunden ein submaximaler Reiz) für zehn Minuten. Diese erste Stimulation dient der Überprüfung, ob der Hirnschnitt eine Reizantwort auf die LTP-Induktion zeigt. […]

Regarding `O=C1Nc2ccc(Cl)cc2C(c2ccccc2Cl)=NC1O` (centres unmarked) [Lorazepam], in the assay with Mäuse (0,3 mg/kg po), the “Anzahl der Feldwechsel im Vergleich zur Vehikel-Kontrolle” value is -46 % der Kontrolle.
In the case of `COc1cc(-c2oc3cc(O)cc(O)c3c(=O)c2O[C@@H]2O[C@H](CO[C@@H]3O[C@@H](C)[C@H](O)[C@@H](O)[C@H]3O)[C@@H](O)[C@H](O)[C@H]2O[C@@H]2OC[C@@H](O)[C@H](O)[C@H]2O)ccc1O` [Verbindung 4, 3-[(O-6-Deoxy-α-L-mannopyranosyl-(1→6)-O-[ß-D-xylopyranosyl-(1→2)]-ß-D-glucopyranosyl)oxy]-5,7-dihydroxy-2-(4-hydroxy-3-methoxyphenyl)-4H-1-benzopyran-4-on], in assay [1], the Langzeitpotenzierung result is on record as “deutlich gesteigert” and the “Reizantwort nach LTP-Stimulation” value was “deutliche Steigerung der Reizantwort”.
Regarding `COc1cc(-c2oc3cc(O)cc(O)c3c(=O)c2O[C@@H]2O[C@H](CO[C@@H]3O[C@@H](C)[C@H](O[C@@H]4O[C@@H](C)[C@H](O)[C@@H](O)[C@H]4O)[C@@H](O)[C@H]3O)[C@@H](O)[C@H](O)[C@H]2O)ccc1O` [Verbindung 3, 3-[(O-6-Deoxy-α-L-mannopyranosyl-(1→4)-O-6-deoxy-α-L-mannopyranosyl-(1→6)-ß-D-glucopyranosyl)oxy]-5,7-dihydroxy-2-(4-hydroxy-3-methoxyphenyl)-4H-1-benzopyran-4-on], the “Anzahl der Feldwechsel im Vergleich zur Vehikel-Kontrolle” value in the assay on Mäuse (3 mg/kg po) is listed as “+15 % der Kontrolle”. Besides, the “Erkundungsverhalten ("exploratory behavior")” value in the assay with Mäuse is listed as “deutlichen, dosisabhängigen und statistisch signifikantem Ansteigen des Erkundungsverhaltens”.
Take `CNC(C)Cc1ccccc1` (centres unmarked) [Methamphetamin]: the “Wechsel Anzahl” value in the assay on Mäuse (0,3 mg/kg peroral) is 7,5 ± 2,1; in the assay on Mäuse (1,0 mg/kg peroral) it was 10,6 ± 1,6; in the assay on Mäuse (3,0 mg/kg peroral), 10,9 ± 3,3; in the assay with Mäuse (10,0 mg/kg peroral), 0,6 ± 1,2. Moreover, the “Wechsel Prozent der Kontrolle” value in the assay on Mäuse (0,3 mg/kg peroral) is given as “+7%”; in the assay with Mäuse (1,0 mg/kg peroral), “+51%”; in the assay on Mäuse (3,0 mg/kg peroral), “+56%”; in the assay with Mäuse (10,0 mg/kg peroral) it was -91%.
Take `COc1cc(-c2oc3cc(O)cc(O)c3c(=O)c2O[C@@H]2O[C@H](CO[C@@H]3O[C@@H](C)[C@H](O)[C@@H](O)[C@H]3O)[C@H](O)[C@H](O)[C@H]2O[C@@H]2OC[C@@H](O)[C@H](O)[C@H]2O)ccc1O` [Verbindung 2, 3-[(O-6-Deoxy-α-L-mannopyranosyl-(1→6)-O-[ß-D-xylopyranosyl-(1→2)]-ß-D-galactopyranosyl)oxy]-5,7-dihydroxy-2-(4-hydroxy-3-methoxy-phenyl)-4H-1-benzopyran-4-on]: the “Anzahl der Feldwechsel im Vergleich zur Vehikel-Kontrolle” value in the assay on Mäuse (10 mg/kg po) is on record as “+100 # % der Kontrolle”; with Mäuse (30 mg/kg po) it was “+38 % der Kontrolle”. In addition, in the assay on Mäuse, the “Erkundungsverhalten ("exploratory behavior")” value is given as “deutlichen, dosisabhängigen und statistisch signifikantem Ansteigen des Erkundungsverhaltens”. In addition, the “Wechselhäufigkeit in der "Hell-Dunkel-Box"” value in the assay on Mäuse (30 mg/kg) is listed as “geht dieser Effekt verloren”; in the assay with Mäuse (3 und 10 mg/kg) it was “deutlichen, signifikanten Steigerung der Wechselhäufigkeit”. For the same compound, the Langzeitpotenzierung result in assay [1] is “deutlich gesteigert”. Besides, the “Reizantwort nach LTP-Stimulation” value in assay [1] is recorded as “deutliche Steigerung der Reizantwort”.
